Reference: ChEMBL document CHEMBL1151184, “New diterpenes from Croton insularis” (J Nat Prod, 2004)

Experiments:
HeLa = experiment: Cytotoxicity against human HeLa cells by MTT assay; assay type: functional, cell-based
L1210 = experiment: Cytotoxicity against mouse L1210 cells by MTT assay; assay type: functional, cell-based

SMILES | IC50 (HeLa) [µM] | IC50 (L1210) [µM]
CC1(C)C(=O)CC[C@@]2(C)[C@@H]3C[C@@H]4[C@@H]5C[C@@]3(CC[C@@H]12)C[C@@]45C | 131 | 103
C[C@@H]1CC[C@]2(C)[C@H](CC[C@@H](O)[C@]2(C)O)[C@@]1(C)CC(=O)c1ccoc1 | > 200 | 98
C[C@@]12CCC[C@@](C)(C(=O)O)[C@@H]1CC[C@@]13C[C@H]4[C@@H](C[C@H]12)[C@]4(C)C3 | 99 | 99
CC1(C)[C@@H](O)CC[C@@]2(C)[C@@H]3C[C@@H]4[C@@H]5C[C@@]3(CC[C@@H]12)C[C@@]45C | > 200 | 133
C[C@]1(CO)[C@@H]2CC[C@@]34C[C@H]5[C@@H](C[C@H]3[C@]2(C)CC[C@H]1O)[C@]5(C)C4 | 97 | 91
C[C@@H]1CC[C@]2(C)[C@H](CC[C@@H](O)[C@]2(C)O)[C@@]12C=C(c1ccoc1)OC2 [CROTINSULARIN] | 148 | 128
